The EC50 is the midpoint of the concentration-response curve. Low readings indicate greater potency, high ones weaker potency.

The results in this text go back to article PMC7004140, “In vitro hepatotoxicity of Petasites hybridus extract (Ze 339) depends on the concentration, the cytochrome activity of the cell system, and the species used” (Phytotherapy Research, 2019).

Data set [1] relates to H-4-II-E cells. In words: WST-1 metabolic activity (cytotoxicity) in H-4-II-E cells. The class given is cell-based, rat (Rattus norvegicus). Conditions: Rattus norvegicus, H4IIE, single constituents, 4 hr. The procedure: HepG2 and H‐4‐II‐E cells were differentiated for 24 hr. HepaRG cells were directly seeded in precoated 96‐well microtiter plates and were incubated in William's medium with general purpose supplements according to manufacturer's manual until adherence. All cells were treated with Ze 339 (up to 100 μg/ml) or petasin, isopetasin, neopetasin, petasol, isopetasol, petasin mixture, fatty acid mixture, and reconstituted extracts (up to 250 μM) for 4 hr.
In the three cell lines, cytotoxicity was defined as a decrease in metabolic activity of ≥20% in the WST‐1 assay. At the end of the experiment, 10 μl WST‐1 reagent was added to each well. Plates were then incubated for 2 hr to allow for the reduction of WST‐1 reagent. Absorbance was measured using a microplate absorbance reader (Infinite M 200, Tecan Trading Ltd., Switzerland) at 450 nm, reference wavelength of 620 nm. Due to some matrix effect, the lowest concentration (0.02 μg/ml for Ze 339 and 3.9 μM for single constituents and mixtures) of each substance tested was defined as 100% metabolic activity. Results were expressed as percentage of the control metabolic activity, and data were presented as mean values ± SEM (n = 3–6).
Concentration‐response analysis was done using the sigmoidal Hill equation: E(t) = E0 − Emax × C(t)^N/(IC50 ^N + C(t)^N), where E is the effect at time t, E0 the effect at baseline (time = 0), IC50 the concentration yielding 50% of the maximal effect (Emax), and N denotes the sigmoidicity coefficient (Origin 2017 Software). For statistical analysis, analysis of variance with Dunnett's multicomparison test was used to correct for multiplicity of testing (IBM SPSS Statistics software, version 25, IBM Corp., USA). The level of significance was ^* p < .05, ^** p < .01 and ^*** p < .001; NS = no significance.
For orientation: Tetrazolium assays rely on reduction of a dye to a coloured formazan, in cell work by metabolically active cells.

For data set [2], the target named is T1, CYP2D2 (rats) (Rattus norvegicus, UniProt P10634).
T1 construct: purchased BD Gentest (Switzerland); host or cells: baculovirus expression system
T1 sequence (P10634 1-500): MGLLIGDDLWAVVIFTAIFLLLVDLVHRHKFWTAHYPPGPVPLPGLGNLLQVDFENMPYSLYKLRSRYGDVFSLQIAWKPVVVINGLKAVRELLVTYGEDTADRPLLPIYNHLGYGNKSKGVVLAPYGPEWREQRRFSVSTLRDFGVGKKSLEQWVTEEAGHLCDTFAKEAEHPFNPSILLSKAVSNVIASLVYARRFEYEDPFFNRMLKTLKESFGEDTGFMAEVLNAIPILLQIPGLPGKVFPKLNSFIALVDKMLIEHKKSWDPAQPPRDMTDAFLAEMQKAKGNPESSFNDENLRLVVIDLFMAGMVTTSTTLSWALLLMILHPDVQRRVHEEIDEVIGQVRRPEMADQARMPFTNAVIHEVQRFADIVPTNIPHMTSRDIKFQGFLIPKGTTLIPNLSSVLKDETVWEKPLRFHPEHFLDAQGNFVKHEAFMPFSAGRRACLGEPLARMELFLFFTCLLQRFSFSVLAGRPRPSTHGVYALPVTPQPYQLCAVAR
The data set is described as follows: Metabolism by isolated rat CYP2D2. The class given is in vitro ADME. Conditions: petasins 20 μM, 60 min. An excerpt: (§1) The metabolism of petasin, isopetasin, and neopetasin was investigated using three different S9 fractions originating from three different species (isolated from rat, dog, and human liver homogenates containing cytochrome P450 isoforms) and isolated cytochromes of two different species (human and rat; rat analogues of the respective human cytochromes were used). For the expression of the different cytochromes, a baculovirus expression system was used according to supplier's manual. The S9 fractions or respectively single P450 cytochromes were used to mimic the liver metabolism by in vitro incubation.
(§2) The assay was carried out in triplicate in 1.5 ml glass vials with a final concentration of 20 μM of petasin, isopetasin, and neopetasin. The incubation was performed in a 37°C warm water bath. S9 fractions were thawed slowly on ice. Four different approaches were pursued by testing: (a) petasin, neopetasin, and isopetasin before (0 min) and after 60 min incubations with S9 fraction; (b) petasin, neopetasin, and isopetasin without S9 fraction after 60 min incubation; (c) vehicle as negative controls; and (d) cofactors of S9 fraction after 60‐min incubation.
(§3) A mixture of NADPH regeneration systems A (20‐fold) and B (100‐fold), phosphate buffer, and H2O was added, preincubated at 37°C, and shaken gently for 5 min. Afterwards, the recommended amount between 10 and 40 pmol/ml of enzyme or enzyme mixture was added according to manufacturer's instruction and incubated for further 60 min at 37°C and gently shaken. Afterwards, the reactions were stopped by addition of acetonitrile (400 μl). For the control sample, acetonitrile was added at 0 min incubation. The samples were centrifuged for 3 min at 10,000 × g. The supernatant was transferred to high‐performance liquid chromatography vials and analyzed by ultra‐performance liquid chromatography mass spectrometry (UPLC/MS). The UPLC analysis was performed with an UPLC Acquity H Class from Waters (Waters Corporation, Switzerland) including a quaternary high‐pressure gradient pump, an automatic sample injector, and a column thermostat. […]

The target of data set [3] is T2, CYP3A4 (human) (Homo sapiens, UniProt P08684).
T2 construct: purchased BD Gentest (Switzerland); host or cells: baculovirus expression system
The data set is described as follows: Metabolism by isolated human CYP3A4. Conditions: petasins 20 μM, 60 min. Format: in vitro ADME.
Description: as §1, §2, §3

The target of data set [4] is T3, CYP2C6 (rat) (Rattus norvegicus, UniProt P05178).
T3 construct: purchased BD Gentest (Switzerland); host or cells: baculovirus expression system
T3 sequence (P05178 1-490): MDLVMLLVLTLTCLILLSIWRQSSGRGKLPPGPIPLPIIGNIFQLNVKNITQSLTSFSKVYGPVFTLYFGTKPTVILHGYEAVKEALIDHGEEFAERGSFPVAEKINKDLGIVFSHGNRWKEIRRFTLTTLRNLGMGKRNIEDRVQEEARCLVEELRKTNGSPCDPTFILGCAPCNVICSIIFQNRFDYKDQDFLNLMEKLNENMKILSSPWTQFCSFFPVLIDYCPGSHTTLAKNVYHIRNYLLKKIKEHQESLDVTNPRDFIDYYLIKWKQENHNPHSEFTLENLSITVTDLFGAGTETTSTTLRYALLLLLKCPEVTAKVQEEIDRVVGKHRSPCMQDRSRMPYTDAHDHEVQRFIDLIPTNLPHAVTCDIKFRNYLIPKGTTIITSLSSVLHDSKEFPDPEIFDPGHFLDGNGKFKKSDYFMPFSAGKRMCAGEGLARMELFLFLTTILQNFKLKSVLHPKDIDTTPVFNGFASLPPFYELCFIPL
The data set is described as follows: Metabolism by isolated rat CYP2C6. Format: in vitro ADME. Conditions: petasins 20 μM, 60 min.
Description: as §1, §2, §3

T2 sequence (P08684 whole entry): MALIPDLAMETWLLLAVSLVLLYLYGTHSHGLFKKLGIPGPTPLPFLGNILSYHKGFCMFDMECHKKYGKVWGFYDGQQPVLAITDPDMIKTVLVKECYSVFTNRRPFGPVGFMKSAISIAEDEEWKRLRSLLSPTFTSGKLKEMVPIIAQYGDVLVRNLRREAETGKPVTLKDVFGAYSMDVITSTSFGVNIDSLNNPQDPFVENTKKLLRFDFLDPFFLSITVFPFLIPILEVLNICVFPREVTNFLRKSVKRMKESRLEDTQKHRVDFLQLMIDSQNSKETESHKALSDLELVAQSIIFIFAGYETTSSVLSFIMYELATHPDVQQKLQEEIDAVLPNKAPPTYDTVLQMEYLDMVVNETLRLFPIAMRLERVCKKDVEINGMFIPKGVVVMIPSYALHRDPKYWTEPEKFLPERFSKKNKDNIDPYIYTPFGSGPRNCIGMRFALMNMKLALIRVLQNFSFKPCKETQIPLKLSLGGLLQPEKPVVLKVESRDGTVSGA

`C/C=C(/C)C(=O)O[C@@H]1CCC2=CC(=O)C(=C(C)C)C[C@]2(C)[C@H]1C` [isopetasin] gave an EC50 in data set [1] of 110 µM. The “extent of metabolism by CYP2D2 (rat)” value in data set [2] stood at 7%. Further, the “extent of metabolism by CYP3A4 (human)” value in data set [3] is 87%. The “extent of metabolism by CYP2C6 (rat)” value in data set [4] was determined as 75%.
On to `C=C(C)[C@H]1C[C@@]2(C)C(=CC1=O)CC[C@@H](OC(=O)/C(C)=C\C)[C@@H]2C` [neopetasin], for which a half-maximal effect in data set [1] (EC50) was put at 15.8 µM. In addition, in data set [2], the “extent of metabolism by CYP2D2 (rat)” value is 36%. In addition, the “extent of metabolism by CYP3A4 (human)” value in data set [3] was 86%. Besides, in data set [4], the “extent of metabolism by CYP2C6 (rat)” value was 72%.
The matching figures for `C=C(C)[C@@H]1C[C@@]2(C)C(=CC1=O)CC[C@@H](OC(=O)/C(C)=C\C)[C@@H]2C` [petasin]: 132 µM, 37%, 34% and 94%.
